Usually EC50 stands for the concentration that produces a half-maximal response. Low readings indicate an effect from little substance, high ones a need for much substance.

What all share (type): cell-based
One assay has as its system A375. In words: Cell proliferation assay A375. To be noted: Homo sapiens, A-375; A375, Melanoma; method of Example 5. On the procedure: (§1) MCF7 cells were seeded in multi well plates at a density optimized to give approximately 90% confluent cells at the time of harvest. Cells were incubated for 24 hours before addition of compound. Compounds were diluted in complete medium and added to the plates in duplicates. The final concentration of DMSO was maximum 0.5%. Complete medium used was DMEM with GlutaMAX containing 10% FBS and pen/strep.
(§2) 120 hours after addition of compounds, the plates were harvested and analyzed by ATPlite 1 Step (Perkin Elmer, cat no 6016739) according to the manufactures recommendation.
(§3) The assays were performed by the method of Example 5 by seeding the relevant cell line at a density optimized to give approximately 90% confluent cells at the time of harvest.

The next assay deals with SK-MEL-28. Put plainly: Cell proliferation assay SK-MEL-28. To be noted: Homo sapiens; SK-MEL-28, Melanoma; method of Example 5. On the procedure: as §1, §2, §3
Another assay concerns AMO1. In words: Cell proliferation assay AMO1. Conditions: Homo sapiens; AMO1, Plasmacytoma; method of Example 5. On the procedure: as §1, §2, §3
Another assay concerns SU DHL6. Put plainly: Cell proliferation assay SU DHL6. Conditions: Homo sapiens, SU-DHL-6; SU DHL6, B cell lymphoma; method of Example 5. On the procedure: as §1, §2, §3
The subject of another assay is K562. In words: Cell proliferation assay K562. To be noted: Homo sapiens; K562, Chronic myelogenous leukemia; method of Example 5. Here is the method:
as §1, §2, §3

For a further assay, the system named is Jurkat Clone E6-1. Put plainly: Cell proliferation assay Jurkat Clone E6-1. Conditions: Homo sapiens; Jurkat Clone E6-1, Acute T cell lymphoma; method of Example 5. On the procedure:
as §1, §2, §3

For a further assay, the system named is SK MM2. Put plainly: Cell proliferation assay SK MM2. To be noted: Homo sapiens, SK-MM-2; SK MM2, Plasma cell leukemia; method of Example 5. Here is the method:
as §1, §2, §3

A further assay relates to UH01. Put plainly: Cell proliferation assay UH01. Conditions: Homo sapiens; UH01, Hodgkin's lymphoma; method of Example 5. On the procedure:
as §1, §2, §3

The test system of the next assay is U266. In words: Cell proliferation assay U266. Conditions: Homo sapiens, U-266; U266, Myeloma; method of Example 5. On the procedure:
as §1, §2, §3

A further assay has as its system MOLP8. Put plainly: Cell proliferation assay MOLP8. Conditions: Homo sapiens, MOLP-8; MOLP8, Myeloma; method of Example 5. Here is the method:
as §1, §2, §3

In a further assay the test system is MM1R. In words: Cell proliferation assay MM1R. Conditions: Homo sapiens, MM.1R, Myeloma, method of Example 5. Here is the method:
as §1, §2, §3

As for `CCN(CCN(C)C)C(=O)CNCc1cc(CNC(=O)C(F)(F)F)ccn1` [Compound 25, N-[(2-{[({[2-(dimethylamino)ethyl]-(ethyl)carbamoyl}-methyl)amino]methyl}-pyrtdin-4-yl)methyl]-2,2,2-trifluoroacetamide], the EC50 in the assay on A375 was 250 to 2500 nM; in the assay on SK-MEL-28, greater than 2500 nM; in the assay with AMO1 it was less than 250 nM; in the assay on SU DHL6, less than 250 nM; with K562 it was 250 to 2500 nM; with Jurkat Clone E6-1, greater than 2500 nM.
As for `CCN(CC)CCCCNCc1cc(/C=N/CCO)ccn1` [Compound 61, 2-[{[2-({[4-(diethylamino)-butyl]amino}-methyl)pyridin-4-yl]methylidene}-amino]ethan-1-ol], the EC50 was 250 to 2500 nM with SK MM2, greater than 2500 nM with UH01 and greater than 2500 nM with U266.
`CCN(CCN(C)C)C(=O)CNCc1cc(C2OCC(Cc3ccccc3)CN2C(=O)C(F)(F)F)ccn1` (centres unmarked) [Compound 90, 2-[({4-[5-benzyl-3-(trifluoroacetyl)-1,3-oxazinan-2-yl]pyridin-2-yl}methyl)amino]-N-[2-(dimethylamino)-ethyl]-N-ethylacetamide]: the EC50 in the assay on MOLP8 and in the assay on MM1R was less than 250 nM throughout.

For the origin of these results see patent publication US9650339B2, “Inhibitors of histone demethylases” (Gilead Sciences, Inc., priority 2013, dated 2017).
